Test results published in PMC9939793 (Infection and Drug Resistance, 2023).

Tested on: all types and subtypes of influenza tested
Format: biochemical, influenza virus
Conditions: peramivir only 2019/20

## CCC(CC)[C@H](NC(C)=O)[C@@H]1[C@H](O)[C@@H](C(=O)O)C[C@H]1N=C(N)N [Peramivir, peramivir]
  activity of NAI in the neuraminidase inhibition assay: most potent inhibitor
